Laboratory results from patent US12240822B2, “Naphthalene isoxazoline compound and application thereof” (SHANDONG C[…] SEA PHARMACEUTICAL TECHNOLOGY CO., LTD., priority 2023, dated 2025).
≈ marks a conversion by molar mass, not a printed value. Where “and” joins values, the source holds several entries; their conditions need not be identical. Identical values can stand only once.

How the values were obtained:
Myzus persicae Sulzer = experiment: Indoor toxicity test on Myzus persicae Sulzer wingless aphids, insect soaking and leaf soaking method; format: in vivo; design: LC50 value of the A4 as fraction of the LC50 value of the C4 / LC50 value of the A4 as fraction of the LC50 value of the B4: unit not given beside the values; conditions: for LC50: Myzus persicae Sulzer wingless aphids, 48 h after administration
Protocol: The aphid species was Myzus persicae Sulzer, which was a sensitive population raised indoors in the bioassay room of the Plant Protection Institute of Shandong Academy of Agricultural Sciences. The temperature range was 24-26° C., the humidity range was 60%-80%, and the illumination was L:D=16 h:8 h. Aphids used for tests were wingless aphids.
Test medicaments were prepared into a mother solution with methanol and then diluted with a Tween-80 aqueous solution having a mass concentration of 0.1% in equal proportions. According to effective components, the B4 was set to 6 concentration gradients of 0.5 mg/L, 1 mg/L, 2 mg/L, 4 mg/L, 8 mg/L, and 16 mg/L; the C4 was set to 6 concentration gradients of 0.5 mg/L, 1 mg/L, 2 mg/L, 4 mg/L, 8 mg/L, and 16 mg/L; and the A4 was set to 6 concentration gradients of 0.05 mg/L, 0.1 mg/L, 0.2 mg/L, 0.4 mg/L, 0.8 mg/L, and 1.6 mg/L. A methanol aqueous solution having a volume concentration of 4% was taken as a blank control.
Insects for tests were processed according to an insect soaking method (NY/T 1154.6-2006) and a leaf soaking method (NY/T 1154.14-2008). Each medicament for tests was diluted to the set 6 concentrations for later use. Absorbent paper was placed at the bottom of a disposable plastic cup, a layer of filter paper was laid on the absorbent paper, and 2 mL of distilled water was added to keep moisture for later use. Leaves with aphids were cut into small leaves, each leaf has about 20 wingless aphids, and the leaves with aphids were gently soaked in the liquid medicine with tweezers and then taken out after 10 s, and placed on the absorbent paper and air-dried. The air-dried leaves were placed in the prepared plastic cups which were then covered, and one leaf was placed in each plastic cup. One repetition was performed for each plastic cup, and 4 repetitions were performed for each concentration. The plastic cups were placed in an illumination incubator, and the number of live aphids and the number of dead aphids were recorded 48 h later.
DPS software was used for processing, and the median lethal concentration LC50 and 95% confidence limit of 3 test medicaments on aphids at 48 h were determined.
The logarithm of the medicament concentration (mg/L) was taken as an independent variable X, the probability value of a corrected death rate was taken as a dependent variable Y, and the LC50 value, 95% confidence limit and R2 of a toxicity regression line were computed by DPS software.

Thrips palmi Karny = experiment: Indoor toxicity test on Thrips palmi Karny adults, liquid tube drug film method with leaf soaking; format: in vivo; design: LC90 value of the A4 as fraction of the LC90 value of the C4 / LC90 value of the A4 as fraction of the LC90 value of the B4: unit not given beside the values; conditions: for LC50 / LC90: Thrips palmi Karny adults, 48 h after administration
Protocol: Through indoor tests, a liquid tube drug film method improved by a filter paper drug film method was used for evaluating the indoor toxicity effects of three raw drugs on Thrips palmi Karny.
Thrips palmi Karny was raised indoors in the insectary of the Plant Protection Institute of Shandong Academy of Agricultural Sciences.
Culture was performed in an illumination incubator, and raising and observation were performed under the conditions that the temperature was 25.0±2.0° C., the relative humidity was 75±5% and the photoperiod (L/D) was 14 h/10 h.
The insect for tests is an adult of Thrips palmi Karny.
Three test medicaments were prepared into a mother solution with methanol and then diluted with a Tween-80 aqueous solution having a mass concentration of 0.1% in equal proportions, and the concentration was set in equal proportions. • B4 concentration: 0.5, 1, 2, 4, 8, 16 mg/L; • C4 concentration: 25, 12.5, 6.25, 3.125, 1.5625, 0.7813 mg/L; • A4 concentration: 0.1, 0.05, 0.025, 0.0125, 0.00625, 0.003125 mg/L. 3.2.2 Test Repetition
Each processing was repeated 4 times, and 30 insects for tests were used for each repetition.
According to NY/T 1154.8-2007, the liquid tube drug film method improved by the filter paper drug film method was used for processing insects for tests. Medicaments for tests were diluted into 6 concentrations, a 1.5 mL centrifugal tube was filled with each concentration of liquid medicine respectively and allowed to stand for 4 h, then the liquid medicine was poured out, and the centrifugal tube was placed on a test table and air-dried for later use. A fine needle tip was heated with an alcohol lamp, and a small hole with a diameter of about 2-3 mm was formed at the bottom of the air-dried centrifugal tube by heating. One repetition was performed for each tube, and 4 repetitions were performed for each concentration. Leaf soaking: A hole puncher was used for punching fresh cabbage leaves into circular leaves with a diameter of 0.5 cm, and the circular leaves were respectively soaked in each concentration of liquid medicine for 10 s with leaf soaking in clear water as a control. The processed leaves were placed on absorbent paper and air-dried and then clamped with small tweezers into the centrifugal tubes with corresponding liquid medicine concentrations, and one leaf was placed flatly in each tube. Indoor insects for tests: An interface of an insect sucker was sealed with gauze and sleeves an orifice of the processed centrifugal tube, and the hole formed by heating at the bottom of the centrifugal tube was aligned with the insects for tests to enable the insects for tests to be sucked into the centrifugal tube along the airflow. The insects for tests were processed after control, about 30 insects for tests were sucked for each repetition, then a tube cover was covered, and the hole formed by heating was sealed with a sealing film. After related information was marked, the number of live insects and the number of dead insects were recorded 48 h later.
Test results were investigated 48 h after drug post-processing.
The logarithm of the medicament concentration (mg/L) was taken as an independent variable X, the probability value of a corrected death rate was taken as a dependent variable Y, and the LC50 value, LC90 value, 95% confidence limit and R2 of a toxicity regression line were computed by DPS software.

[1] = 0.05 mg/L, 48 h, single repetitions 1-4
[2] = 0.1 mg/L, 48 h, single repetitions 1-4
[3] = 0.5 mg/L, 48 h, single repetitions 1-4
[4] = 1 mg/L, 48 h, single repetitions 1-4
[5] = 4 mg/L, 48 h, single repetitions 1-4
[6] = 8 mg/L, 48 h, single repetitions 1-4
[7] = 16 mg/L, 48 h, single repetitions 1-4
[8] = 2 mg/L, 48 h, single repetitions 1-4

CO/N=C/NC(=O)c1ccc(C2=NOC(c3cc(Cl)cc(C(F)(F)F)c3)(C(F)(F)F)C2)c2ccccc12 (stereo not shown) [A4, 4-(5-(3-chloro-5-(trifluoromethyl)phenyl)-5-(trifluoromethyl)-4,5-dihydroisoxazol-3-yl)-N-((methoxylimino)methyl)-1-naphthyl formamide]
Death rate (Myzus persicae Sulzer; 0.05 mg/L, 48 h, Total): 15.94%
Death rate (Myzus persicae Sulzer; [1]): 15.00% and 17.24% and 16.13% and 15.38%
Death rate (Myzus persicae Sulzer; 0.1 mg/L, 48 h, Total): 24.96%
Death rate (Myzus persicae Sulzer; [2]): 23.53% and 22.73% and 25.00% and 28.57%
Death rate (Myzus persicae Sulzer; 0.2 mg/L, 48 h, Total): 33.73%
Death rate (Myzus persicae Sulzer; 0.2 mg/L, 48 h, single repetitions 1-4): 33.33% and 35.71% and 34.29% and 31.58%
Death rate (Myzus persicae Sulzer; 0.4 mg/L, 48 h, Total): 40.78%
Death rate (Myzus persicae Sulzer; 0.4 mg/L, 48 h, single repetitions 1-4): 50.00% and 43.48% and 37.50% and 32.14%
Death rate (Myzus persicae Sulzer; 0.8 mg/L, 48 h, Total): 63.22%
Death rate (Myzus persicae Sulzer; 0.8 mg/L, 48 h, single repetitions 1-4): 61.29% and 67.74% and 60.53% and 63.33%
Death rate (Myzus persicae Sulzer; 1.6 mg/L, 48 h, Total): 84.47%
Death rate (Myzus persicae Sulzer; 1.6 mg/L, 48 h, single repetitions 1-4): 87.10% and 81.25% and 86.21% and 83.33%
LC50 (Myzus persicae Sulzer): 0.439 µg/mL (≈ 0.807 µM)
LC50 value of the A4 as fraction of the LC50 value of the B4 (Myzus persicae Sulzer; Myzus persicae Sulzer, 48 h): 14/100
LC50 value of the A4 as fraction of the LC50 value of the C4 (Myzus persicae Sulzer; Myzus persicae Sulzer, 48 h): 40/100
Death rate (Thrips palmi Karny; 0.003125 mg/L, 48 h, Total/Average): 9.97%
Death rate (Thrips palmi Karny; 0.00625 mg/L, 48 h, Total/Average): 37.74%
Death rate (Thrips palmi Karny; 0.00625 mg/L, 48 h, single repetitions 1-4): 35.00% and 29.41% and 42.11% and 44.44%
Death rate (Thrips palmi Karny; 0.0125 mg/L, 48 h, Total/Average): 61.14%
Death rate (Thrips palmi Karny; 0.0125 mg/L, 48 h, single repetitions 1-4): 55.00% and 60.00% and 69.57%
Death rate (Thrips palmi Karny; 0.025 mg/L, 48 h, Total/Average): 80.47%
Death rate (Thrips palmi Karny; 0.025 mg/L, 48 h, single repetitions 1-4): 85.19% and 73.91% and 80.95% and 81.82%
Death rate (Thrips palmi Karny; 0.05 mg/L, 48 h, Total/Average): 91.01%
Death rate (Thrips palmi Karny; [1]): 85.71% and 91.30% and 94.44% and 92.59%
Death rate (Thrips palmi Karny; 0.1 mg/L, 48 h, Total/Average): 100.00%
Death rate (Thrips palmi Karny; [2]): 100.00%
LC50 (Thrips palmi Karny): 0.0123 µg/mL (≈ 0.0226 µM)
LC90 (Thrips palmi Karny): 0.0705 mg/L (≈ 0.13 µM)
LC90 value of the A4 as fraction of the LC90 value of the B4 (Thrips palmi Karny; Thrips palmi Karny, 48 h): 2/1000
LC90 value of the A4 as fraction of the LC90 value of the C4 (Thrips palmi Karny; Thrips palmi Karny, 48 h): 4/1000

CO/N=C/NC(=O)c1ccc(C2=NOC(c3cc(Cl)cc(Cl)c3)(C(F)(F)F)C2)c2ccccc12 (stereo not shown) [B4, 4-(5-(3,5-dichlorophenyl)-5-(trifluoromethyl)-4,5-dihydroisoxazol-3-yl)-N-((methoxylimino)methyl)-1-naphthyl formamide]
Death rate (Myzus persicae Sulzer; 0.5 mg/L, 48 h, Total): 12.01%
Death rate (Myzus persicae Sulzer; [3]): 10.00% and 12.50% and 13.04%
Death rate (Myzus persicae Sulzer; 1 mg/L, 48 h, Total): 20.73%
Death rate (Myzus persicae Sulzer; [4]): 15.15% and 22.22% and 21.74% and 23.81%
Death rate (Myzus persicae Sulzer; 2 mg/L, 48 h, Total): 45.08%
Death rate (Myzus persicae Sulzer; 4 mg/L, 48 h, Total): 61.17%
Death rate (Myzus persicae Sulzer; [5]): 41.94% and 58.33% and 72.00% and 72.41%
Death rate (Myzus persicae Sulzer; 8 mg/L, 48 h, Total): 78.33%
Death rate (Myzus persicae Sulzer; [6]): 80.95% and 66.67% and 85.71% and 80.00%
Death rate (Myzus persicae Sulzer; 16 mg/L, 48 h, Total): 84.61%
Death rate (Myzus persicae Sulzer; [7]): 88.89% and 86.96% and 81.82% and 80.77%
LC50 (Myzus persicae Sulzer): 3.13 µg/mL (≈ 6.14 µM)
Death rate (Thrips palmi Karny; 0.5 mg/L, 48 h, Total/Average): 18.31%
Death rate (Thrips palmi Karny; 1 mg/L, 48 h, Total/Average): 30.20%
Death rate (Thrips palmi Karny; 2 mg/L, 48 h, Total/Average): 33.85%
Death rate (Thrips palmi Karny; [8]): 30.77% and 36.84% and 27.78% and 40.00%
Death rate (Thrips palmi Karny; 4 mg/L, 48 h, Total/Average): 47.56%
Death rate (Thrips palmi Karny; [5]): 52.00% and 41.38% and 54.55% and 42.31%
Death rate (Thrips palmi Karny; 8 mg/L, 48 h, Total/Average): 67.00%
Death rate (Thrips palmi Karny; [6]): 79.17% and 68.00% and 58.33% and 62.50%
Death rate (Thrips palmi Karny; 16 mg/L, 48 h, Total/Average): 98.68%
Death rate (Thrips palmi Karny; [7]): 100.00% and 94.74%
LC50 (Thrips palmi Karny): 3.33 µg/mL (≈ 6.53 µM)
LC90 (Thrips palmi Karny): 33.9739 mg/L (≈ 66.6 µM)

CO/N=C/NC(=O)c1ccc(C2=NOC(c3cc(Cl)cc(Cl)c3)(C(F)(F)F)C2)cc1C (stereo not shown) [C4, fluxametamide]
Death rate (Myzus persicae Sulzer; 0.5 mg/L, 48 h, Total): 21.47%
Death rate (Myzus persicae Sulzer; [3]): 25.00% and 25.71% and 16.67% and 18.52%
Death rate (Myzus persicae Sulzer; 1 mg/L, 48 h, Total): 46.05%
Death rate (Myzus persicae Sulzer; [4]): 47.83% and 36.36% and 40.00% and 60.00%
Death rate (Myzus persicae Sulzer; 2 mg/L, 48 h, Total): 77.48%
Death rate (Myzus persicae Sulzer; [8]): 85.71% and 77.78% and 75.00% and 71.43%
Death rate (Myzus persicae Sulzer; 4 mg/L, 48 h, Total): 85.54%
Death rate (Myzus persicae Sulzer; [5]): 89.29% and 88.00% and 87.10% and 77.78%
Death rate (Myzus persicae Sulzer; 8 mg/L, 48 h, Total): 96.06%
Death rate (Myzus persicae Sulzer; [6]): 91.67% and 92.59% and 100.00%
Death rate (Myzus persicae Sulzer; 16 mg/L, 48 h, Total): 97.20%
Death rate (Myzus persicae Sulzer; [7]): 93.33% and 100.00% and 95.45%
LC50 (Myzus persicae Sulzer): 1.1 µg/mL (≈ 2.32 µM)
Death rate (Thrips palmi Karny; 0.7813 mg/L, 48 h, Total/Average): 14.47%
Death rate (Thrips palmi Karny; 1.5625 mg/L, 48 h, Total/Average): 25.14%
Death rate (Thrips palmi Karny; 3.125 mg/L, 48 h, Total/Average): 66.15%
Death rate (Thrips palmi Karny; 3.125 mg/L, 48 h, single repetitions 1-4): 70.59% and 63.16% and 70.00% and 60.87%
Death rate (Thrips palmi Karny; 6.25 mg/L, 48 h, Total/Average): 82.01%
Death rate (Thrips palmi Karny; 6.25 mg/L, 48 h, single repetitions 1-4): 85.71% and 88.00% and 75.00% and 79.31%
Death rate (Thrips palmi Karny; 12.5 mg/L, 48 h, Total/Average): 87.89%
Death rate (Thrips palmi Karny; 12.5 mg/L, 48 h, single repetitions 1-4): 88.89% and 85.19% and 87.50% and 90.00%
Death rate (Thrips palmi Karny; 25 mg/L, 48 h, Total/Average): 96.78%
Death rate (Thrips palmi Karny; 25 mg/L, 48 h, single repetitions 1-4): 95.83% and 95.65% and 100.00%
LC50 (Thrips palmi Karny): 2.69 µg/mL (≈ 5.67 µM)
LC90 (Thrips palmi Karny): 16.1203 mg/L (≈ 34 µM)
